pIC50: −log10 of the molar value.
Key:
Full length Akt1 = target: T1, Full length Akt1 (Homo sapiens, UniProt P31749); experiment: In vitro Akt kinase enzymatic assay (HTRF), Akt1; type: biochemical; conditions: 0.4 nM Akt1, substrate solution with 5 mM ATP, 25° C. 1 hr
T1 construct: Full length Akt1 (cat #P2999); purchased PerkinElmer P2999
Procedure, shortened: (§1)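 Full-length enzyme (0.4 nM Akt1 or 0.6 nM Akt2/Akt3 in the enzyme solution) was combined with a substrate solution of 0.1 μM ULight-Crosstide plus 5 mM ATP in pH 7.8 HEPES/MgCl2/DTT/Tween20 buffer and reacted 1 hr at 25° C. The EDTA stop contained Eu anti-phospho-Crosstide; IC50 was fitted from 11-point HTRF inhibition curves.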

Full length Akt2 = target: T2, Full length Akt2 (Homo sapiens, UniProt P31751); experiment: In vitro Akt kinase enzymatic assay (HTRF), Akt2; type: biochemical; conditions: 0.6 nM Akt2, substrate solution with 5 mM ATP, 25° C. 1 hr
T2 construct: Full length Akt1 (cat #P2999), Akt2 (cat #PV3184); purchased PerkinElmer PV3184
Procedure, shortened: as §1

Full length Akt3 = target: T3, Full length Akt3 (Homo sapiens, UniProt Q9Y243); experiment: In vitro Akt kinase enzymatic assay (HTRF), Akt3; type: biochemical; conditions: 0.6 nM Akt3, substrate solution with 5 mM ATP, 25° C. 1 hr
T3 construct: Full length Akt1 (cat #P2999), Akt2 (cat #PV3184), Akt3 (cat #PV3185); purchased PerkinElmer PV3185
Procedure, shortened: as §1

Full length PKA = target: T4, Full length PKA (Homo sapiens, UniProt P17612); experiment: PKA in vitro enzymatic assay (HTRF); type: biochemical; conditions: 0.035 nM enzyme solution, substrate solution with 5 mM ATP, 25° C. 1 hr
T4 construct: Full length PKA (cat #P2912); purchased Invitrogen P2912
Procedure, shortened: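 Reaction buffer was 50 mM HEPES pH 7.8, 10 mM MgCl2, 5 mM DTT and 0.005% Tween20. Enzyme solution was 0.035 nM, and substrate solution was 0.1 μM fluorescein-CREBtide with 5 mM ATP. After 1 h at 25°C, EDTA plus Tb anti-pS133 antibody was added, TR-FRET was read, and IC50 was fitted from 11-point, 3-fold % inhibition curves.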

[1] = tested on: LNCaP cells (human prostate tumor cell line); experiment: Akt LNCaP proliferation assay (MTS); type: cell-based; conditions: 2% fetal bovine serum, 48 hours, class symbols
Experimental: LNCaP cells (human prostate tumor cell line) were plated in 96 well plates (COSTAR, Corning, N.Y.) in 50 μL at 10,000 cells/well in RPMI (Media Tech, Manassas, Va.), 2% fetal bovine serum (Hyclone/Thermo, Logan, Utah) and incubated overnight at 37° C., 5% CO2. […] of compound solution were added at final concentrations of 1000 nM to 0.5 nM in 3 fold dilutions for IC50 determination and plates further incubated for 48 hours. 100 μL of Cell Titer 96® Aqueous reagent, from an MTS colorimetric method for determining the number of viable cells in proliferation (Cell titer 96, Promega, Madison, Wis.) was added for 2 hours at 37° C., 5% CO2. Each plate was mixed well and read on a SpectroMax M5 automated plate reader (Molecular Devices, Sunnyvale Calif.). The ability of the compound to inhibit proliferation was reported as the inhibitor concentration required for 50% inhibition (IC50 values) of total cell proliferation. See Table 8 for data related to compounds of the examples.

T1 sequence (P31749 whole entry): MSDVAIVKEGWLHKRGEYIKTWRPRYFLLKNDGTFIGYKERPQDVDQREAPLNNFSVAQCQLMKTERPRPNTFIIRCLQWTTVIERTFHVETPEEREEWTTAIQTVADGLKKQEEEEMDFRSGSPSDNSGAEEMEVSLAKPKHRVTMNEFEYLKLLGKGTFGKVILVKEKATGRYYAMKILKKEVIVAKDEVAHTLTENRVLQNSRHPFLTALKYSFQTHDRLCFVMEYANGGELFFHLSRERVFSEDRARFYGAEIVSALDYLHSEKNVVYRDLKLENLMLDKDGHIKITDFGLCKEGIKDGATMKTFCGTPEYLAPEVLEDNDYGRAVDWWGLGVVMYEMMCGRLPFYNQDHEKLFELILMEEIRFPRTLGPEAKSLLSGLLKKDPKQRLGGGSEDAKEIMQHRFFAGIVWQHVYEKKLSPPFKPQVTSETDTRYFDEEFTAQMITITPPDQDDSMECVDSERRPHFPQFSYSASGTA
T2 sequence (P31751 whole entry): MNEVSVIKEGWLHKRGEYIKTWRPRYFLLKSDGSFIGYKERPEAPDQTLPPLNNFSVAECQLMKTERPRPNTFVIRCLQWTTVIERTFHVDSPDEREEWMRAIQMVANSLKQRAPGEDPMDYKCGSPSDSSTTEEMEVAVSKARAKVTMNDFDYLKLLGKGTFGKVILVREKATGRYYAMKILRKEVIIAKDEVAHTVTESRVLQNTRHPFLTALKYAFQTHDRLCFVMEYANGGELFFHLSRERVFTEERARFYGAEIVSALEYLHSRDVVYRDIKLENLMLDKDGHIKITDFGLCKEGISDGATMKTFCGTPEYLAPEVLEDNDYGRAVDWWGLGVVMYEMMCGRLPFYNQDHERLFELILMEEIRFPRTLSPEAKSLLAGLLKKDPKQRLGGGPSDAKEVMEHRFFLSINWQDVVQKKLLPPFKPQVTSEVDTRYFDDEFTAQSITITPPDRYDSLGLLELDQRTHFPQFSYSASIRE
T3 sequence (Q9Y243 whole entry): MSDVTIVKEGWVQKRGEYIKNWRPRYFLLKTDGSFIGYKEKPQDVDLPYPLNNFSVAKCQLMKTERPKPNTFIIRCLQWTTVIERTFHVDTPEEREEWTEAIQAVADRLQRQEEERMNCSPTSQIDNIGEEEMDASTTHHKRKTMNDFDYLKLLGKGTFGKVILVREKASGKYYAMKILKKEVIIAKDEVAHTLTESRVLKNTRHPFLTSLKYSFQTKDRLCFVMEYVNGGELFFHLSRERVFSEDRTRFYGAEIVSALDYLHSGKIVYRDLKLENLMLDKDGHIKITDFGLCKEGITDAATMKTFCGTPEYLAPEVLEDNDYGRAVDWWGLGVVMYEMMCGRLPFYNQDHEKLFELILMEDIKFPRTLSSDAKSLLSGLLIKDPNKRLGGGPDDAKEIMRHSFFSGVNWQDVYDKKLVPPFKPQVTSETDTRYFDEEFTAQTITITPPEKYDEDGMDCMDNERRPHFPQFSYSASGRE

pIC50 (Full length Akt1) | pIC50 (Full length Akt2) | pIC50 (Full length Akt3) | pIC50 (Full length PKA) | pIC50 [1] | Compound
> 6.30 | > 6.30 | > 6.30 | 5.30 to 6.30 | > 6.30 | Cn1nccc1-c1ccc2c(c1)CN([C@H](CN)Cc1cccc(F)c1)C2=O [Example 1, 2-[(1S)-2-Amino-1-(3-fluorobenzyl)ethyl]-5-(1-methyl-1H-pyrazol-5-yl)isoindolin-1-one]
> 6.30 | > 6.30 | > 6.30 | 5.30 to 6.30 | > 6.30 | Cn1ncc(Cl)c1-c1ccc2c(c1)CN([C@H](CN)Cc1cccc(F)c1)C2=O [Example 2, 2-[(1S)-2-amino-1-(3-fluorobenzyl)ethyl]-5-(4-chloro-1-methyl-1H-pyrazol-5-yl)isoindolin-1-one]
> 6.30 | > 6.30 | > 6.30 | 5.30 to 6.30 | > 6.30 | Cc1cnn(C)c1-c1ccc2c(c1)CN([C@H](CN)Cc1cccc(F)c1)C2=O [Example 3, 2-[(1S)-2-amino-1-(3-fluorobenzyl)ethyl]-5-(4-methyl-1-methyl-1H-pyrazol-5-yl)isoindolin-1-one]
> 6.30 | > 6.30 | > 6.30 | < 5.30 | > 6.30 | COCc1cnn(C)c1-c1ccc2c(c1)CN([C@H](CN)Cc1cccc(F)c1)C2=O [Example 4, 2-[(1S)-2-amino-1-(3-fluorobenzyl)ethyl]-5-(4-methoxymethyl-1-methyl-1H-pyrazol-5-yl)isoindolin-1-one]
> 6.30 | > 6.30 | > 6.30 | < 5.30 | > 6.30 | CCOCc1cnn(C)c1-c1ccc2c(c1)CN([C@H](CN)Cc1cccc(F)c1)C2=O [Example 5, 2-[(1S)-2-amino-1-(3-fluorobenzyl)ethyl]-5-(4-ethoxymethyl-1-methyl-1H-pyrazol-5-yl)isoindolin-1-one]
> 6.30 | > 6.30 | > 6.30 | < 5.30 | > 6.30 | CC(C)OCc1cnn(C)c1-c1ccc2c(c1)CN([C@H](CN)Cc1cccc(F)c1)C2=O [Example 6, 2-[(1S)-2-amino-1-(3-fluorobenzyl)ethyl]-5-[4-(2-propoxymethyl)-1-methyl-1H-pyrazol-5-yl]isoindolin-1-one]
> 6.30 | > 6.30 | > 6.30 | < 5.30 | > 6.30 | CCCOCc1cnn(C)c1-c1ccc2c(c1)CN([C@H](CN)Cc1cccc(F)c1)C2=O [Example 7, 2-[(1S)-2-amino-1-(3-fluorobenzyl)ethyl]-5-[4-(1-propoxymethyl)-1-methyl-1H-pyrazol-5-yl]isoindolin-1-one]
> 6.30 | > 6.30 | > 6.30 | < 5.30 | > 6.30 | Cn1ncc(COCC2CC2)c1-c1ccc2c(c1)CN([C@H](CN)Cc1cccc(F)c1)C2=O [Example 9, 2-[(1S)-2-amino-1-(3-fluorobenzyl)ethyl]-5-(4-cyclopropylmethoxymethyl-1-methyl-1H-pyrazol-5-yl)isoindolin-1-one]
> 6.30 | 5.30 to 6.30 | 5.30 to 6.30 | < 5.30 | 5.30 to 6.30 | CSCc1cnn(C)c1-c1ccc2c(c1)CN([C@H](CN)Cc1cccc(F)c1)C2=O [Example 10]
> 6.30 | > 6.30 | > 6.30 | 5.30 to 6.30 | > 6.30 | Cn1ncc(F)c1-c1ccc2c(c1)CN([C@H](CN)Cc1cccc(F)c1)C2=O [Example 11, 2-[(1S)-2-amino-1-(3-fluorobenzyl)ethyl]-5-(4-fluoro-1-methyl-1H-pyrazol-5-yl)isoindolin-1-one]
> 6.30 | > 6.30 | > 6.30 | 5.30 to 6.30 | > 6.30 | Cn1ncc(Br)c1-c1ccc2c(c1)CN([C@H](CN)Cc1cccc(F)c1)C2=O [Example 12, 2-[(1S)-2-amino-1-(3-fluorobenzyl)ethyl]-5-(4-bromo-1-methyl-1H-pyrazol-5-yl)isoindolin-1-one]
> 6.30 | > 6.30 | > 6.30 | < 5.30 | > 6.30 | Cn1ncc(C#N)c1-c1ccc2c(c1)CN([C@H](CN)Cc1cccc(F)c1)C2=O [Example 13, 2-[(1S)-2-amino-1-(3-fluorobenzyl)ethyl]-5-(4-cyano-1-methyl-1H-pyrazol-5-yl)isoindolin-1-one]
> 6.30 | > 6.30 | > 6.30 | 5.30 to 6.30 | > 6.30 | Cn1nccc1-c1ccc2c(c1)CN([C@H](CN)Cc1cc(F)cc(F)c1)C2=O [Example 40, 2-[(1S)-2-amino-1-(3,5-difluorobenzyl)ethyl]-5-(1-methyl-1H-pyrazol-5-yl)isoindolin-1-one]
> 6.30 | > 6.30 | > 6.30 | 5.30 to 6.30 | > 6.30 | Cn1ncc(Cl)c1-c1ccc2c(c1)CN([C@H](CN)Cc1cc(F)cc(F)c1)C2=O [Example 41, 2-[(1S)-2-amino-1-(3,5-difluorobenzyl)ethyl]-5-(4-chloro-1-methyl-1H-pyrazol-5-yl)isoindolin-1-one]
> 6.30 | > 6.30 | > 6.30 | 5.30 to 6.30 | > 6.30 | Cc1cnn(C)c1-c1ccc2c(c1)CN([C@H](CN)Cc1cc(F)cc(F)c1)C2=O [Example 42, 2-[(1S)-2-amino-1-(3,5-difluorobenzyl)ethyl]-5-(4-methyl-1-methyl-1H-pyrazol-5-yl)isoindolin-1-one]
> 6.30 | > 6.30 | > 6.30 | < 5.30 | > 6.30 | COCc1cnn(C)c1-c1ccc2c(c1)CN([C@H](CN)Cc1cc(F)cc(F)c1)C2=O [Example 43, 2-[(1S)-2-amino-1-(3,5-difluorobenzyl)ethyl]-5-(4-methoxymethyl-1-methyl-1H-pyrazol-5-yl)isoindolin-1-one]
> 6.30 | > 6.30 | > 6.30 | 5.30 to 6.30 | > 6.30 | CCOCc1cnn(C)c1-c1ccc2c(c1)CN([C@H](CN)Cc1cc(F)cc(F)c1)C2=O [Example 44, 2-[(1S)-2-amino-1-(3,5-difluorobenzyl)ethyl]-5-(4-ethoxymethyl-1-methyl-1H-pyrazol-5-yl)isoindolin-1-one]
> 6.30 | > 6.30 | > 6.30 | 5.30 to 6.30 | > 6.30 | CC(C)OCc1cnn(C)c1-c1ccc2c(c1)CN([C@H](CN)Cc1cc(F)cc(F)c1)C2=O [Example 45, 2-[(1S)-2-amino-1-(3,5-difluorobenzyl)ethyl]-5-[4-(2-propoxymethyl)-1-methyl-1H-pyrazol-5-yl]isoindolin-1-one]
> 6.30 | > 6.30 | > 6.30 | 5.30 to 6.30 | > 6.30 | CCCOCc1cnn(C)c1-c1ccc2c(c1)CN([C@H](CN)Cc1cc(F)cc(F)c1)C2=O [Example 46, 2-[(1S)-2-amino-1-(3,5-difluorobenzyl)ethyl]-5-[4-(1-propoxymethyl)-1-methyl-1H-pyrazol-5-]isoindolin-1-one]

Compound | pIC50 (Full length Akt1) | pIC50 (Full length Akt2) | pIC50 (Full length Akt3) | pIC50 (Full length PKA) | pIC50 [1]
Cn1ncc(COC2CCC2)c1-c1ccc2c(c1)CN([C@H](CN)Cc1cccc(F)c1)C2=O [Example 8, 2-[(1S)-2-amino-1-(3-fluorobenzyl)ethyl]-5-(4-cyclobutoxymethyl-1-methyl-1H-pyrazol-5-yl)isoindolin-1-one] | > 6.30 | > 6.30 | > 6.30 | 5.30 to 6.30 | > 6.30

— patent US8895571B2, “Isoindolinone and pyrrolopyridinone derivatives as Akt inhibitors” (Incyte Corporation, priority 2011, dated 2014)
